Measurements: ChEMBL document CHEMBL4507319 (2021)

Legend:
Conditions in all cases: Compound concentration 1.0 uM
[1] = target: T1, Serine/threonine-protein kinase 4 (Homo sapiens) (UniProt Q13043); assay: MST1(h) Eurofins kinase panel
T1 sequence (whole entry): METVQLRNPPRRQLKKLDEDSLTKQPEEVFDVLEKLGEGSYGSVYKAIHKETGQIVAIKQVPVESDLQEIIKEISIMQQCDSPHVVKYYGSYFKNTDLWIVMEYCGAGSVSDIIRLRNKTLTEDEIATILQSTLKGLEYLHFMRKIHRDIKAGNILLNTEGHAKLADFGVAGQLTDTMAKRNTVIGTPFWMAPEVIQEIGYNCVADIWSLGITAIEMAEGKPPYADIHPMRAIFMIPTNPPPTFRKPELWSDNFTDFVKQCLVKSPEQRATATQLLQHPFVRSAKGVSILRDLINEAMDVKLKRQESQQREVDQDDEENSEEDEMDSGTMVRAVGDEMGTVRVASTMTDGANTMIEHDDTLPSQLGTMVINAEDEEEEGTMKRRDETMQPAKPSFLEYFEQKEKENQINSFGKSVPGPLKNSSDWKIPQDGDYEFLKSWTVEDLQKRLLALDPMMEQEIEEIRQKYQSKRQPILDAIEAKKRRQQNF

[2] = target: T2, cGMP-dependent protein kinase 1 (Homo sapiens) (UniProt Q13976); assay: PKG1beta (h) Eurofins kinase panel
T2 sequence (whole entry): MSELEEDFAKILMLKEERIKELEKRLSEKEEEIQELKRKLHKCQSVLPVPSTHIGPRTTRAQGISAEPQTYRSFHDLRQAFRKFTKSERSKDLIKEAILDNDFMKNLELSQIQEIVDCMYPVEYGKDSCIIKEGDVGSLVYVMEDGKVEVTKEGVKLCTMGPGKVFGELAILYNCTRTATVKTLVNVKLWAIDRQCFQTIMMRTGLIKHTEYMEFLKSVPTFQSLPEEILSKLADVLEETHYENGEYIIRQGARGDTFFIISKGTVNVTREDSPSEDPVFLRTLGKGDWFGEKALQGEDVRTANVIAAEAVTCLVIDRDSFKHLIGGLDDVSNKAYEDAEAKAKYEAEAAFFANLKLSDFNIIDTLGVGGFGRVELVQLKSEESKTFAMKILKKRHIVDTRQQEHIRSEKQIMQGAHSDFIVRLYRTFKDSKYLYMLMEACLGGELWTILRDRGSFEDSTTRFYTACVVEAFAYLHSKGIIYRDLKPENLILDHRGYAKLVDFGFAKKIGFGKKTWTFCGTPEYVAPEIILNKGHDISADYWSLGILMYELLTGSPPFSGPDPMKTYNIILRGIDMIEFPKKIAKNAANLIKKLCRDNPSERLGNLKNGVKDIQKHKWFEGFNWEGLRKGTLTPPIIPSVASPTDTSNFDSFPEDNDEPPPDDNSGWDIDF

[3] = target: T3, Tyrosine-protein kinase JAK3 (Homo sapiens) (UniProt P52333); assay: JAK3(h) Eurofins kinase panel
T3 sequence (whole entry): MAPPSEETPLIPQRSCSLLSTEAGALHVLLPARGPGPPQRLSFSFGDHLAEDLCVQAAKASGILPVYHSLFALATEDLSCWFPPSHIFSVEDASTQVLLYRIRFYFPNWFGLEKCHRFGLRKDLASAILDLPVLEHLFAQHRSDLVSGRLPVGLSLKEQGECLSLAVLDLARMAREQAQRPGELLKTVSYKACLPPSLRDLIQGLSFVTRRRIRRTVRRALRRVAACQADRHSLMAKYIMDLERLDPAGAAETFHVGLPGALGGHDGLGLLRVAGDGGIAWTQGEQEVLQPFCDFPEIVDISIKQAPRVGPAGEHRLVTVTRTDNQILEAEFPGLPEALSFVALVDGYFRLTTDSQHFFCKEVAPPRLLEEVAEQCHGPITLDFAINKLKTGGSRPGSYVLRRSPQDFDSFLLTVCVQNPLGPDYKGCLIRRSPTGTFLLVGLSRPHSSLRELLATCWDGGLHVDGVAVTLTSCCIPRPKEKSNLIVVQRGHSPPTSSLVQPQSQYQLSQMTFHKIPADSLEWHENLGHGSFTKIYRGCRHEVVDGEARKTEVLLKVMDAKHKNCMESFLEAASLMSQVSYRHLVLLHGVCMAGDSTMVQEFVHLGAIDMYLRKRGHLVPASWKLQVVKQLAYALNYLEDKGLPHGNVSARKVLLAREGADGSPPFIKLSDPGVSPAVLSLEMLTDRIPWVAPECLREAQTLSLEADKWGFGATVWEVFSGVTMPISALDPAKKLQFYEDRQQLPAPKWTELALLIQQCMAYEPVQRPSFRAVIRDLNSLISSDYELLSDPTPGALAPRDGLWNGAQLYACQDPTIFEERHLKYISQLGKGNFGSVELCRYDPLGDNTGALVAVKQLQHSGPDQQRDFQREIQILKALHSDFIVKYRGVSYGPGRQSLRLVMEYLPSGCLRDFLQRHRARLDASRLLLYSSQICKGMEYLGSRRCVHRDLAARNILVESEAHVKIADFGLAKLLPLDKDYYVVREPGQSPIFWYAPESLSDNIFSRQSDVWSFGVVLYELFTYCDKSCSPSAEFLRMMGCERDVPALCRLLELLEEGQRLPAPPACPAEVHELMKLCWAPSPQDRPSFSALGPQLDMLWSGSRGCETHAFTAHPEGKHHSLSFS

[4] = target: T4, Inhibitor of nuclear factor kappa-B kinase subunit beta (Homo sapiens) (UniProt O14920); assay: IKKbeta(h) Eurofins kinase panel
T4 sequence (whole entry): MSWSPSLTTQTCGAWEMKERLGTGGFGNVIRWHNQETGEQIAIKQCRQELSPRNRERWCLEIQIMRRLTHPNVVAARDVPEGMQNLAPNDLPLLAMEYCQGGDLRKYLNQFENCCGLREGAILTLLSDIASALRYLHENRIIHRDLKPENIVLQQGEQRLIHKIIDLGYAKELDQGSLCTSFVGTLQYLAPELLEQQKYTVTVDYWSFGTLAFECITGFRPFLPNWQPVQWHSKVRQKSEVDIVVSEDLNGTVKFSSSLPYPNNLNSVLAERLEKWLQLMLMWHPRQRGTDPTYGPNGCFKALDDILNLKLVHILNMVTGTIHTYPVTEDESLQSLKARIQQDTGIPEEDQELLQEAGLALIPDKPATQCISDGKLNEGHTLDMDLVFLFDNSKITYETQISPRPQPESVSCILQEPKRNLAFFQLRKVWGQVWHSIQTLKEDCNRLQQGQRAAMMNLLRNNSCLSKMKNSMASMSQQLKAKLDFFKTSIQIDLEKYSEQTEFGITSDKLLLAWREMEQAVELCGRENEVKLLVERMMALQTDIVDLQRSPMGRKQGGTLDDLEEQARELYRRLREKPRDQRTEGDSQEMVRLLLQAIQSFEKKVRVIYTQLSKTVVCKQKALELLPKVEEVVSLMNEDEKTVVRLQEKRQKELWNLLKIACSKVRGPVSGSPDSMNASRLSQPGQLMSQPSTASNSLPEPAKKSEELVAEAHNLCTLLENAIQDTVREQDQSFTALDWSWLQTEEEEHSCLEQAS

[5] = target: Serine/threonine-protein kinase 25 (Homo sapiens) (UniProt O00506); assay: STK25(h) Eurofins kinase panel
Sequence of Serine/threonine-protein kinase 25 (Homo sapiens) (O00506 whole entry, looked up): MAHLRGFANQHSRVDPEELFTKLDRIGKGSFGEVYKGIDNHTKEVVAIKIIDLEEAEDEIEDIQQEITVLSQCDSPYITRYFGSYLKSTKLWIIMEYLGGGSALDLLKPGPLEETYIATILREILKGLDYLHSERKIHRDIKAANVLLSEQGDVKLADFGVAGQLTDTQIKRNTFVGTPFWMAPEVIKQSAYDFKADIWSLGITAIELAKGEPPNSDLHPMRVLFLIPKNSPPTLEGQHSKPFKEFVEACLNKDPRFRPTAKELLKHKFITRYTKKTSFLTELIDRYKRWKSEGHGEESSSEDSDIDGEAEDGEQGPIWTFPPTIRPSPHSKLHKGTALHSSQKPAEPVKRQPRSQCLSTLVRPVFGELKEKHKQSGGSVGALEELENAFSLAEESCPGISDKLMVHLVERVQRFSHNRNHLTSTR

Measured: % residual kinase activity

CCc1ccccc1C(=O)Nc1n[nH]c2c(C)c(F)c(C3C(C#N)=C(C)N(C)C(C)=C3C#N)cc12 [BAY-3827]
inactive: [1] 73% | [2] 78% | [3] 93% | [4] 106% | [5] 43%
